Assay results: patent US20070043093A1, “Glucagon-like peptide-1 receptor agonists, the preparation and the use of the same” (priority 2003, published 2007)

Key:
GLP-1R [1] = target: T1, GLP-1R (Rattus norvegicus, UniProt P32301); test: Ligand-binding activity, competition with 125I-labelled GLP-1 on HEK 293/GLP1R+Luc cells; design: species or system human; conditions: for EC50: competition with 125I-labelled GLP-1 (40 pM), 25 °C, 4 hours; for affinity to GLP-1R (in words): receptor-binding experiment, testing concentration range 0.1 nM to 100,000 nM
T1 construct: stably transfected with the expression vector of GLP-1R gene
T1 sequence (P32301 22-463): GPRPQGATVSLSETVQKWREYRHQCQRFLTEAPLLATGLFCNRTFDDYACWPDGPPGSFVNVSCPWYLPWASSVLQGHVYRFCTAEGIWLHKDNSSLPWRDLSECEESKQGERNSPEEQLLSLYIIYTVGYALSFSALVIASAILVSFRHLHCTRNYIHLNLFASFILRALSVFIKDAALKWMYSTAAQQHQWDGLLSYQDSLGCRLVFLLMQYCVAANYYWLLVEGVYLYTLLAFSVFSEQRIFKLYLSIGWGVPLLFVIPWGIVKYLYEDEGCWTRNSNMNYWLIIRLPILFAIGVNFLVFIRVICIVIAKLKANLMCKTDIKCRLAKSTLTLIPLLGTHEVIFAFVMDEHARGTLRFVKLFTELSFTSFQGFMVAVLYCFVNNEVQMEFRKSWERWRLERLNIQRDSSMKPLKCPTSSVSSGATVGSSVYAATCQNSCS
Method: In order to determine the binding activity of the compound to the ligand, the cells which highly express GLP-1R are prepared, GLP-1 labelled with ^125I is used as the ligand, while adding into the candidate compound. When the candidate compound binds the ^125I-labelled GLP-1 competitively, the isotope labels on the cell membrane reduce. Accordingly, the affinity of the candidate compound to the ligand can be evaluated (J Mol Endocrinol. 2000 Vol.25:321-35; J Biomol Screen, 2000 Vol. 5:377-84).
20 mM of tris-HCl (pH 7.4) (Shanghai Shenggong biological engineering technology LTD), 100 mM of NaCl (Shanghai Chemical agents Cooperation), 15 mM of NaF (Shanghai Chemical agents Cooperation), 2 mM of deoxypyridoxine (Sigma Cooperation), 0.2 mM of phenylmethylsulfonyl fluoride (Sigma Cooperation), aprotinin (Shanghai Chemical agents Cooperation) (1 μg/ml), and leupeptin (Shanghai Chemical agents Cooperation) (1 μg/ml).
The candidate compound is diluted with dimethyl sulphoxide at the concentration gradient of 0.1 nM, 1 nM, 10 nM, 100 nM, 1000 nM, 10,000 nM, and 100,000 nM.
10^5 HEK 293/GLP1R+Luc cells in the logarithmic growth phase are incubated together with the ^125I-labelled GLP-1 positive peptide (the final concentration of 40 pM) in 200 μl of the testing buffer solution at 25 °C for 4 hours, while adding into the non-labeled positive peptide or the candidate compound. The cells are collected with the cell collector, following by washing three times with the washing solution. The scintillation liquid is added into them, and each well is counted with Microbata counter.

GLP-1R [2] = target: T1, GLP-1R; test: Determination of the concentration of intracellular cAMP; format: cell-based, human
Excerpt: Since the determination of the concentration of intracellular cAMP indirectly by detecting the expression of the report gene is an indirect process, the functional re-screen is directly performed with the cAMP-detecting kit in order to make sure that the compound can surely increase the concentration of intracellular cAMP.
HEK 293/GLP1R+Luc strain which stably express GLP-1R and luciferase (National new medicaments screening center)
HEK 293 cells are inoculated into 96-well plate in 20000 cells/100 μl/well, are cultured at 37[…] overnight. The compound 2f is diluted to 1.00E-03M, 1.00E-04M, 1.00E-05M, 1.00E-06M and 1.00E-07M with dimethyl sulphoxide, following by being inoculated into the above 96-well plate in […] and being cultured at 37 °C with 5% of CO2 for 1 hour. The concentration of intracellular cAMP is detected according to the specification of cAMP-Screen Direct TM system kit.

GLP-1R [3] = target: T1, GLP-1R; test: Expression of the luciferase report gene in HEK 293/GLP1R+Luc cells; format: cell-based, human; conditions: for EC50: luciferase report gene, HEK 293/GLP1R+Luc cells, 6 hours
Excerpt: Upon that GLP-1R binds to GLP-1 or agonists, its Gasubunit is activated to stimulate the adenylate cyclase, which makes the increase in the concentration of intracellular cAMP. Since the promoter region of the proinsulin gene has the cAMP response element, upon binding of cAMP to this response element, the transcription of the proinsulin gene is activated, so as to increase the sensitivity of -- islet cells to glucose, and improve the expression and secretion of insulin (Diabetes, 2000, vol.49:1156-1164). The screening model employs the human embryonal nephric cell strain which is stably transfected with the expression vector of GLP-1R gene and the expression vector of luciferase report gene under the regulation of cAMP response element, to detect its response to the candidate compound (Cell Biology, 1992, Vol.89: 8641-8645; Proc. Natl. Acad. Sci. U.S.A. 1987, Vol.84: 3434-3438). When screening the candidate compounds, the compound which may induce the luciferase report gene to express have the activity of activating GLP-1.
Cell strain: HEK 293/GLP1R+Luc strain which stably express GLP-1R and luciferase (National New Medicaments Screening Center)
HEK 293/GLP1R+Luc cell in 20000 cells/100 μl/well are inoculated into 96-well plate, are cultured at 37[…] overnight with DMEM culture medium containing 10% of fetal calf serum and 500 μg/mL of G418. The candidate compounds wang516-2, wang502, and wang504 are respectively diluted to 2 mM, 1 mM, 0.3 mM, 0.1 mM, 0.03 mM, […], and 0.003 mM, and the other candidate compounds are diluted gradually from 30 mM for 8 times by a ratio of 1:3 to get a concentration gradient (i.e., 30 mM, 10 mM, 3 mM, 1 mM, 0.3 mM, 0.1 mM, 0.03 mM, and 0.01 mM), following by being added into the above 96-well plate at 1 μl/well. Then, the cells are cultured at 37[…] in 5% of CO2for 6 hours. The activity of luciferase is detected according to the specification of Steady-glo™ luciferase analysis system kit, and counting is performed with Victor 2 counting machine. The positive control adopts 30 nM of standard GLP-1.

Structure (SMILES) | EC50 (GLP-1R [1]) [µM] | EC50 (GLP-1R [3]) [µM] | other results
COc1cc(C=C2N=C(c3ccccc3)OC2=O)ccc1OC(=O)c1cccs1 [wang405] | > 100 |  | 
COc1cc(/C=C2/N=C(c3ccc(N)cc3)OC2=O)ccc1OC(=O)c1cccs1 [wang420] | > 100 |  | 
COc1cc(C=C2N=C(c3ccc([N+](=O)[O-])cc3)OC2=O)ccc1OC(=O)c1cccs1 [wang450] | > 100 |  | 
COc1cc(/C=C2/N=C(c3ccc(NC(=O)c4ccccc4)cc3)OC2=O)ccc1OC(=O)c1cccs1 [wang524] | > 100 | 46.5 | 
COc1cc(C=C2N=C(c3ccc(NC(=O)Nc4ccc(C5=NC(=Cc6ccc(OC(=O)c7cccs7)c(OC)c6)C(=O)O5)cc4)cc3)OC2=O)ccc1OC(=O)c1cccs1 [wang866] | > 100 | 54.4 | 

Now from value to compound, other results behind:

EC50 (GLP-1R [1]) [µM] | EC50 (GLP-1R [3]) [µM] | Structure (SMILES) | other results
31 | 13 | CCOc1cc(/C=C2/N=C(c3ccc(NC(C)=O)cc3)OC2=O)ccc1OC(=O)c1cccs1 [2f] | affinity to GLP-1R (in words) (GLP-1R [1]): better affinity; effect of high concentration on cells (cAMP decreasing trend) (GLP-1R [2]; 30 μM and 100 μM): cellulotoxic effect; concentration of cAMP with increase of compound concentration (GLP-1R [2]; 293/GLP-1R cells, 1 hour, FIG. 2): exponential increase
> 100 | 11.6 | COc1cc(/C=C2/N=C(c3ccc(NC(C)=O)cc3)OC2=O)ccc1OC(=O)c1cccs1 [wang462] | 
 | 6.73 | COc1cc(/C=C2/N=C(c3ccc(NC(=O)C4CC4)cc3)OC2=O)ccc1OC(=O)c1cccs1 [wang488] | 
 | 3.31 | COc1cc(/C=C2/N=C(c3ccc(NC(=O)C4CCC4)cc3)OC2=O)ccc1OC(=O)c1cccs1 [wang502] | 
 | 4.87 | COc1cc(/C=C2/N=C(c3ccc(NC(=O)C(C)(C)C)cc3)OC2=O)ccc1OC(=O)c1cccs1 [wang504] | 
40 to 80 | 6.85 | COc1cc(C=C2N=C(c3ccc(NC(=O)C4CCCC4)cc3)OC2=O)ccc1OC(=O)c1cccs1 [wang516] | affinity to GLP-1R (in words) (GLP-1R [1]): little week
60 to 100 | 4.6 | COc1cc(/C=C2/N=C(c3ccc(NC(=O)OC(C)(C)C)cc3)OC2=O)ccc1OC(=O)c1cccs1 [wang520] | affinity to GLP-1R (in words) (GLP-1R [1]): little week; relative activity of luciferase (GLP-1R [3]; final concentration of 30 μM, luciferase activity induced by 30 nM standard GLP-1 regarded as 100%, FIG. 1): 94%
 | 5.24 | COc1cc(/C=C2/N=C(c3ccc(NC(=O)C(O)c4ccccc4)cc3)OC2=O)ccc1OC(=O)c1cccs1 (stereo not shown) [wang554] | 
